According to patent publication US20070173527A1, “HISTONE DEACETYLASE INHIBITORS” (priority 2006, published 2007):

Biological target: HDAC2 (Homo sapiens, UniProt Q92769)
Assay: HDAC2 fluorescence inhibition assay (tBoc-Lys(Ac)-AMC)

Sequence of HDAC2 (Q92769 whole entry): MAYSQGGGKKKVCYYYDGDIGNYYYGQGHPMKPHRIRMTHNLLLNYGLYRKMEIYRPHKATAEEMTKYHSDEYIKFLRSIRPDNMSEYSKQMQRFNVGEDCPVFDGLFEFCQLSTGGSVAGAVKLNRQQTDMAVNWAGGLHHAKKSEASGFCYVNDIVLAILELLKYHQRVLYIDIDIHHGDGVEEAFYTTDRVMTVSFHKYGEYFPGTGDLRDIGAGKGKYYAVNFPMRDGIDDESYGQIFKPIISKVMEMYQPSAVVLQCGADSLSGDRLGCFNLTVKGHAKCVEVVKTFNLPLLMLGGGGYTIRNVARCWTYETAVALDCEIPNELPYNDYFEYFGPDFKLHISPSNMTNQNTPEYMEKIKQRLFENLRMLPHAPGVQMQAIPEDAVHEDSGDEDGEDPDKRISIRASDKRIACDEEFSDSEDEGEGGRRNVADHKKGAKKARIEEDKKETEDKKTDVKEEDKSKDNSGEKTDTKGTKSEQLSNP

SMILES | IC50
Nc1ccccc1NC(=O)c1ccc(COc2nc3cccnc3[nH]2)cc1 [Example 4, 4-((3H-imidazo[4,5-b]pyridin-2-yloxy)methyl)-N-(2-aminophenyl)benzamide] | 100 to 1000 nM
Nc1ccccc1NC(=O)c1ccc(CSc2nc3ccccc3n2C2CCCCC2)cc1 [Example 8, N-(2-aminophenyl)-4-((1-cyclohexyl-1H-benzo[d]imidazol-2-ylthio)methyl)benzamide] | 100 to 1000 nM
Nc1ccccc1NC(=O)c1ccc(CSc2nc3cccnc3[nH]2)cc1 [Example 9, 4-((3H-imidazo[4,5-b]pyridin-2-ylthio)methyl)-N-(2-aminophenyl)benzamide] | < 100 nM
Nc1ccccc1NC(=O)c1ccc(CSc2nc3ccncc3[nH]2)cc1 [Example 10, 4-((3H-imidazo[4,5-c]pyridin-2-ylthio)methyl)-N-(2-aminophenyl)benzamide] | < 100 nM
Nc1ccccc1NC(=O)c1ccc(COc2nc3cccnc3[nH]2)s1 [Example 12, 5-((3H-imidazo[4,5-b]pyridin-2-yloxy)methyl)-N-(2-aminophenyl)thiophene-2-carboxamide] | > 1000 nM

More lines, now with the values ahead:

IC50 | SMILES
< 100 nM | Nc1ccccc1NC(=O)c1ccc(CNc2nc3ccccc3[nH]2)cc1 [Example 2, 4-((1H-benzo[d]imidazol-2-ylamino)methyl)-N-(2-aminophenyl)benzamide]
100 to 1000 nM | Nc1ccccc1NC(=O)c1ccc(CSc2nc3ccccc3[nH]2)cc1 [Example 3, 4-((1H-benzo[d]imidazol-2-ylthio)methyl)-N-(2-aminophenyl)benzamide]
100 to 1000 nM | Nc1ccccc1NC(=O)c1ccc(C[S+]([O-])c2nc3ccccc3[nH]2)cc1 (centres unmarked) [Example 5, 4-((1H-benzo[d]imidazol-2-ylsulfinyl)methyl)-N-(2-aminophenyl)benzamide]
100 to 1000 nM | Nc1ccccc1NC(=O)c1ccc(CS(=O)(=O)c2nc3ccccc3[nH]2)cc1 [Example 6, 4-((1H-benzo[d]imidazol-2-ylsulfonyl)methyl)-N-(2-aminophenyl)benzamide]
< 100 nM | CC(C)n1c(SCc2ccc(C(=O)Nc3ccccc3N)cc2)nc2ccccc21 [Example 7, N-(2-aminophenyl)-4-((1-isopropyl-1H-benzo[d]imidazol-2-ylthio)methyl)benzamide]
100 to 1000 nM | Nc1ccccc1NC(=O)c1ccc(COc2nc3ccncc3[nH]2)cc1 [Example 11, 4-((3H-imidazo[4,5-c]pyridin-2-yloxy)methyl)-N-(2-aminophenyl)benzamide]
